{"source": "patent US11324750B2", "about": "“Compositions and methods for the treatment of severe acute respiratory syndrome coronavirus 2 (SARS-CoV-2) infection” (Children's Hospital Medical Center, priority 2020, dated 2022)", "key": {"SARS-CoV-2 [1]": {"test_system": "SARS-CoV-2", "assay": "Virus clearance time by RT-PCR on throat swab", "type": "in vivo", "conditions": "median (IQR); patients with positive RT-PCR on throat swab; P 0.85 (table), P=0.65"}, "SARS-CoV-2 [2]": {"test_system": "SARS-CoV-2", "assay": "SARS-CoV-2 copies number in blood by one-step RT-ddPCR", "type": "in vivo"}, "48 cytokines in serum": {"test_system": "48 cytokines in serum", "assay": "Serum cytokines, Bio-Plex Pro Human Cytokines 48-Plex Screening assay", "conditions": "in vivo"}, "[3]": {"test_system": "SARS-CoV-2-specific IgM and IgG", "assay": "SARS-CoV-2-specific IgM and IgG detection (CLIA)", "type": "in vivo, human", "conditions": "vs control group", "excerpt": "SARS-CoV-2-specific IgM and IgG detection. The SARS-CoV-2-specific IgM and IgG were detected by paramagnetic particle chemiluminescent immunoassay (CLIA) using iFlash-SARS-CoV-2 IgM/IgG assay kit (SHENZHEN YHLO BIOTECH CO., LTD.) and iFlash Immunoassay Analyzer (SHENZHEN YHLO BIOTECH CO., LTD.)\nProcedures. The first day of randomization was designated as D0. The second and the fourth day after randomization were designated D1 and D3, respectively. Dx referred to the day when either disease progressed according to the Chinese management guideline for COVID-19 (version 5.0) or defined as a one-category increase on the seven-category scale. Dend was the day before discharge. The enrolled patients were randomly separated into two groups: the treatment group (group B) received oral intake of ruxolitinib (Jakafi®, Novartis Pharma Stein AG, Switzerland) 5 mg twice a day plus standard-of-care (SoC); the control group (group A) is treated with placebo twice a day with SoC. […] Safety was monitored daily by two independent senior physicians from the trial center. […] The CT features of improvement were evaluated by two independent senior radiologists blindly, which should at least meet one of the following criteria: decreased presence of ground-glass opacities (GGO), decreased lung opacification, reduced density of consolidation or decreased pleural effusion with existence of fibrous stripes^29. […]"}}, "note": "“Also recorded” adds a separate entry of the source."}
{"smiles": "N#CC[C@H](C1CCCC1)n1cc(-c2ncnc3[nH]ccc23)cn1", "note": "[Ruxolitinib, (3R)-3-cyclopentyl-3-[4-(7H-pyrrolo[2,3-d]pyrimidin-4-yl)pyrazol-1-yl]propanenitrile]", "values": [{"measurement": "Virus clearance time", "setting": "SARS-CoV-2 [1]", "value": 13, "unit": "days"}, {"measurement": "Blood viral RNA loads at D1", "setting": "SARS-CoV-2 [2]; mean (±SEM), baseline, P=0.57 vs control", "value": "94±26", "unit": "copies per milliliter"}, {"measurement": "Viral load at discharge", "setting": "SARS-CoV-2 [2]; vs SoC alone, P=0.63", "value": "did not differ"}, {"measurement": "Average fold-change of 48 cytokines", "setting": "48 cytokines in serum", "value": 0.466}, {"measurement": "Average values of 48 cytokines", "setting": "48 cytokines in serum", "value": "decreased significantly; also recorded: all average values of 48 cytokines decreased"}, {"measurement": "Level of MIP-1α", "setting": "48 cytokines in serum", "value": "markedly decreased"}, {"measurement": "Level of interleukin-6 (IL-6)", "setting": "48 cytokines in serum", "value": "markedly decreased"}, {"measurement": "Level of interleukin-12 (IL-12) (p40)", "setting": "48 cytokines in serum", "value": "markedly decreased"}, {"measurement": "Level of macrophage inflammatory protein 1β (MIP-1β)", "setting": "48 cytokines in serum", "value": "markedly decreased"}, {"measurement": "Level of macrophage migration inhibitory factor (MIF)", "setting": "48 cytokines in serum", "value": "markedly decreased"}, {"measurement": "Level of nerve growth factor β (NGF-β)", "setting": "48 cytokines in serum", "value": "markedly decreased"}, {"measurement": "Level of vascular endothelial growth factor (VEGF)", "setting": "48 cytokines in serum", "value": "markedly decreased"}, {"measurement": "Peak IgG against SARS-CoV-2", "setting": "[3]", "value": "no significant difference"}, {"measurement": "Peak level of anti-IgM of SARS-CoV-2", "setting": "[3]; P=0.039", "value": "profoundly higher"}]}
